Results on 2 compounds are retold here after ChEMBL document CHEMBL1151599, “Probing the importance of the second chloroethyl arm of a benzoic acid mustard derivative of an imidazole-containing analogue of distamycin” (Bioorg Med Chem Lett, 1994).

Experiment [1] concerns Nucleic Acid. Kind of experiment: Apparent DNA binding constant to Poly (dA-dT) was determined using an ethidium displacement assay. It counts as nucleic-acid assay.
For experiment [2], the system named is Nucleic Acid. Kind of experiment: Apparent DNA binding constant to Poly (dG-dC) was determined using an ethidium displacement assay. It counts as nucleic-acid assay.
Experiment [3] deals with Nucleic Acid. As to the kind of experiment: Apparent DNA binding constant to T4 DNA was determined using an ethidium displacement assay. The format is nucleic-acid assay.
Experiment [4] has as its system Nucleic Acid. Kind of experiment: Apparent DNA binding constant to calf thymus DNA was determined using an ethidium displacement assay. It counts as nucleic-acid assay. The note with it: Bos taurus.
The test system of experiment [5] is K562. Kind of experiment: Cytotoxicity against the growth of chronic human myeloid leukemia K562 cells in culture following 1 hour exposure of compound using MTT assay. It counts as functional, cell-based. The conditions noted are these: K562, 1 h.

With `CN(C)CCNC(=O)c1nc(NC(=O)c2nc(NC(=O)c3nc(NC(=O)c4ccc(N(CCCl)CCCl)cc4)cn3C)cn2C)cn1C`, the K app was determined as 550000 M⁻¹ in experiment [1], 500000 M⁻¹ in experiment [2], 170000 M⁻¹ in experiment [3] and 590000 M⁻¹ in experiment [4].

Take `CN(C)CCNC(=O)c1nc(NC(=O)c2nc(NC(=O)c3nc(NC(=O)c4ccc(NCCCl)cc4)cn3C)cn2C)cn1C`: in experiment [5], the IC50 is > 100 µM. The K app came to 550000 M⁻¹ in experiment [1], 900000 M⁻¹ in experiment [2], 3.89e+06 M⁻¹ in experiment [3] and 2.27e+06 M⁻¹ in experiment [4].

One may read the IC50 as the point on the concentration scale where inhibition reaches its midpoint. A low value points to higher potency.
